Patent US20250034113A1, “SOLID STATE FORMS OF TAVAPADON AND PROCESSES FOR PREPARATION THEREOF” (TEVA CZECH INDUSTRIES S.R.O, priority 2021, published 2025)

Assay: Stability test of crystalline forms at different relative humidities and temperatures, XRPD analysis
Format: physicochemical
Settings: for time stable after exposure to different relative humidity conditions at different temperatures: 25° C./60% RH and 40° C./75% RH, by XRPD; for XRPD analysis after storage: 2 month; for stability to conditions of relative humidity at elevated temperatures: general statement
Protocol: Powder X-ray Diffraction was performed on an X-Ray powder diffractometer PanAlytical X'pert Pro; CuKα radiation (λ=1.54187 Å); X'Celerator detector with active length 2.122 degrees 2-theta; laboratory temperature 25±3° C.; zero background sample holders. Prior to analysis, the samples were gently ground using a mortar and pestle to obtain a fine powder. The ground sample was adjusted into a cavity of the sample holder and the surface of the sample was smoothed using a cover glass.
• Scan range: 3-40 degrees 2-theta • Scan mode: continuous • Step size: 0.0167 degrees • […] s • Sample spin: 60 rpm • Sample holder: zero background silicon plate
Samples of Tavapadon form 1 and Form H1 were subjected to conditions of different relative humidities at different temperatures. XRPD analysis was performed on the samples after 2 month.
Samples of Tavapadon Form H1 were subjected to conditions of different relative humidities at different temperatures, over a time period of 6 months. XRPD analysis was performed on the samples after 2, 4 and 6 months.
Samples of Tavapadon Form R1 were subjected to conditions of different relative humidities at different temperatures, over a time period of 6 months. XRPD analysis was performed on the samples after 2, 4 and 6 months.

| XRPD result (crystalline form) (0 M (start)) | time stable after exposure to different relative humidity conditions at different temperatures | XRPD result (crystalline form) (25° C./60% RH, 2 M) | XRPD result (crystalline form) (25° C./60% RH, 4 M) | XRPD result (crystalline form) (25° C./60% RH, 6 M) | XRPD result (crystalline form) (40° C./75% RH, 2 M) | XRPD result (crystalline form) (40° C./75% RH, 4 M) | XRPD result (crystalline form) (40° C./75% RH, 6 M) | XRPD analysis after storage (25° C., 60% RH) | XRPD analysis after storage (40° C., 75% RH) | stability to conditions of relative humidity at elevated temperatures | Compound |
| --- | --- | --- | --- | --- | --- | --- | --- | --- | --- | --- | --- |
| Form R1 | at least 6 months | Form R1 | Form R1 | Form R1 | Form R1 | Form R1 | Form R1 | – | – | – | Cc1cc(Oc2ncccc2C(F)(F)F)ccc1-c1c(C)c(=O)[nH]c(=O)n1C (racemic) [Tavapadon Form R1, 1,5-dimethyl-6-(2-methyl-4-{[3-(trifluoromethyl)pyridin-2-yl]oxy}phenyl)pyrimidine-2,4(1H,3H)-dione] |
| – | – | – | – | – | – | – | – | No change | No change | particularly stable | Cc1cc(Oc2ncccc2C(F)(F)F)ccc1-c1c(C)c(=O)[nH]c(=O)n1C (single isomer, unassigned) [Tavapadon Form 1, 1,5-dimethyl-6-(2-methyl-4-{[3-(trifluoromethyl)pyridin-2-yl]oxy}phenyl)pyrimidine-2,4(1H,3H)-dione] |
| Form H1 | at least 6 months | Form H1 | Form H1 | Form H1 | Form H1 | Form H1 | Form H1 | No change | – | particularly stable | Cc1cc(Oc2ncccc2C(F)(F)F)ccc1-c1c(C)c(=O)[nH]c(=O)n1C (single isomer, unassigned) [Tavapadon Form H1, 1,5-dimethyl-6-(2-methyl-4-{[3-(trifluoromethyl)pyridin-2-yl]oxy}phenyl)pyrimidine-2,4(1H,3H)-dione] |
